Reference: the supplement of paper PMC10307832

Tests used:
Experiment in all cases: relative viability (nuclei count vs DMSO), 5 days (fraction); higher = more cells survive
EPLC-272H = test system: EPLC-272H
How it was run: (§1)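 Each reported value is a median over duplicate plates. It expresses relative viability: treated-well nuclei count divided by vehicle-well nuclei count. Lung cancer cell lines in 1536-well plates were dosed by pin tool a day after seeding, alone with one drug or with a fixed anchor-drug dose plus five library-drug doses (not always all listed) in √10 steps, and nuclei were counted after 5 days.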

NCI-H1915 = test system: NCI-H1915
How it was run: as §1

A-427 = test system: A-427
How it was run: as §1

SK-MES-1 = test system: SK-MES-1
How it was run: as §1

HOP-62 = test system: HOP-62
How it was run: as §1

NCI-H2087 = test system: NCI-H2087
How it was run: as §1

NCI-H661 = test system: NCI-H661
How it was run: as §1

LOU-NH91 = test system: LOU-NH91
How it was run: as §1

HCC-366 = test system: HCC-366
How it was run: as §1

EKVX = test system: EKVX
How it was run: as §1

HCC-78 = test system: HCC-78
How it was run: as §1

NCI-H2023 = test system: NCI-H2023
How it was run: as §1

NCI-H1650 = test system: NCI-H1650
How it was run: as §1

COR-L23 = test system: COR-L23
How it was run: as §1

NCI-H596 = test system: NCI-H596
How it was run: as §1

NCI-H650 = test system: NCI-H650
How it was run: as §1

NCI-H838 = test system: NCI-H838
How it was run: as §1

HCC-44 = test system: HCC-44
How it was run: as §1

NCI-H358 = test system: NCI-H358
How it was run: as §1

ChaGo-K-1 = test system: ChaGo-K-1
How it was run: as §1

NCI-H1734 = test system: NCI-H1734
How it was run: as §1

NCI-H1395 = test system: NCI-H1395
How it was run: as §1

NCI-H3122 = test system: NCI-H3122
How it was run: as §1

Cc1cnc(-c2cnc(NCCNc3ccc(C#N)cn3)nc2-c2ccc(Cl)cc2Cl)[nH]1 + Nc1ncn([C@H]2C[C@H](O)[C@@H](CO)O2)c(=O)n1 [Decitabine] (partner 2 µM)
relative viability (EPLC-272H; first compound 0.08 µM): 0.436 | relative viability (EPLC-272H; first compound 0.253 µM): 0.353 | relative viability (EPLC-272H; first compound 0.8 µM): 0.352 | relative viability (EPLC-272H; first compound 2.53 µM): 0.467 | relative viability (NCI-H1915; first compound 0.08 µM): 0.275 | relative viability (NCI-H1915; first compound 0.8 µM): 0.286 | relative viability (NCI-H1915; first compound 2.53 µM): 0.264 | relative viability (A-427; first compound 0.08 µM): 0.535 | relative viability (A-427; first compound 0.253 µM): 0.526 | relative viability (A-427; first compound 0.8 µM): 0.61 | relative viability (A-427; first compound 2.53 µM): 0.618 | relative viability (SK-MES-1; first compound 0.08 µM): 0.378 | relative viability (SK-MES-1; first compound 0.253 µM): 0.35 | relative viability (SK-MES-1; first compound 0.8 µM): 0.393 | relative viability (SK-MES-1; first compound 2.53 µM): 0.406 | relative viability (HOP-62; first compound 0.08 µM): 0.204 | relative viability (HOP-62; first compound 0.253 µM): 0.226 | relative viability (HOP-62; first compound 0.8 µM): 0.236 | relative viability (HOP-62; first compound 2.53 µM): 0.174 | relative viability (NCI-H2087; first compound 0.08 µM): 0.282 | relative viability (NCI-H2087; first compound 0.8 µM): 0.286 | relative viability (NCI-H2087; first compound 2.53 µM): 0.204 | relative viability (NCI-H661; first compound 0.08 µM): 0.609 | relative viability (NCI-H661; first compound 0.253 µM): 0.545 | relative viability (NCI-H661; first compound 0.8 µM): 0.569 | relative viability (NCI-H661; first compound 2.53 µM): 0.551 | relative viability (LOU-NH91; first compound 0.08 µM): 0.818 | relative viability (LOU-NH91; first compound 0.253 µM): 0.799 | relative viability (LOU-NH91; first compound 0.8 µM): 0.852 | relative viability (LOU-NH91; first compound 2.53 µM): 0.802 | relative viability (HCC-366; first compound 0.08 µM): 0.372 | relative viability (HCC-366; first compound 0.253 µM): 0.318 | relative viability (HCC-366; first compound 0.8 µM): 0.288 | relative viability (HCC-366; first compound 2.53 µM): 0.335 | relative viability (EKVX; first compound 0.08 µM): 0.386 | relative viability (EKVX; first compound 0.253 µM): 0.315 | relative viability (EKVX; first compound 0.8 µM): 0.34 | relative viability (EKVX; first compound 2.53 µM): 0.351 | relative viability (HCC-78; first compound 0.08 µM): 0.692 | relative viability (HCC-78; first compound 0.253 µM): 0.507 | relative viability (HCC-78; first compound 0.8 µM): 0.767 | relative viability (HCC-78; first compound 2.53 µM): 0.731 | relative viability (NCI-H2023; first compound 0.08 µM): 0.232 | relative viability (NCI-H2023; first compound 0.253 µM): 0.195 | relative viability (NCI-H2023; first compound 0.8 µM): 0.241 | relative viability (NCI-H2023; first compound 2.53 µM): 0.228 | relative viability (NCI-H1650; first compound 0.08 µM): 0.478 | relative viability (NCI-H1650; first compound 0.253 µM): 0.259 | relative viability (NCI-H1650; first compound 0.8 µM): 0.397 | relative viability (NCI-H1650; first compound 2.53 µM): 0.443 | relative viability (COR-L23; first compound 0.08 µM): 0.521 | relative viability (COR-L23; first compound 0.253 µM): 0.367 | relative viability (COR-L23; first compound 0.8 µM): 0.521 | relative viability (COR-L23; first compound 2.53 µM): 0.548 | relative viability (NCI-H596; first compound 0.08 µM): 1.08 | relative viability (NCI-H596; first compound 0.253 µM): 0.995 | relative viability (NCI-H596; first compound 0.8 µM): 1.03 | relative viability (NCI-H596; first compound 2.53 µM): 1.07 | relative viability (NCI-H650; first compound 0.08 µM): 0.356 | relative viability (NCI-H650; first compound 0.253 µM): 0.339 | relative viability (NCI-H650; first compound 0.8 µM): 0.302 | relative viability (NCI-H650; first compound 2.53 µM): 0.329 | relative viability (NCI-H838; first compound 0.08 µM): 0.503 | relative viability (NCI-H838; first compound 0.253 µM): 0.506 | relative viability (NCI-H838; first compound 0.8 µM): 0.47 | relative viability (NCI-H838; first compound 2.53 µM): 0.46 | relative viability (HCC-44; first compound 0.08 µM): 0.846 | relative viability (HCC-44; first compound 0.253 µM): 0.561 | relative viability (HCC-44; first compound 0.8 µM): 0.925 | relative viability (HCC-44; first compound 2.53 µM): 1.02 | relative viability (NCI-H358; first compound 0.08 µM): 0.234 | relative viability (NCI-H358; first compound 0.253 µM): 0.208 | relative viability (NCI-H358; first compound 0.8 µM): 0.248 | relative viability (NCI-H358; first compound 2.53 µM): 0.213 | relative viability (ChaGo-K-1; first compound 0.08 µM): 0.546 | relative viability (ChaGo-K-1; first compound 0.253 µM): 0.485 | relative viability (ChaGo-K-1; first compound 0.8 µM): 0.499 | relative viability (ChaGo-K-1; first compound 2.53 µM): 0.466 | relative viability (NCI-H1734; first compound 0.08 µM): 0.514 | relative viability (NCI-H1734; first compound 0.253 µM): 0.453 | relative viability (NCI-H1734; first compound 0.8 µM): 0.544 | relative viability (NCI-H1734; first compound 2.53 µM): 0.567 | relative viability (NCI-H1395; first compound 0.08 µM): 0.774 | relative viability (NCI-H1395; first compound 0.253 µM): 0.714 | relative viability (NCI-H1395; first compound 0.8 µM): 0.737 | relative viability (NCI-H1395; first compound 2.53 µM): 0.757 | relative viability (NCI-H3122; first compound 0.08 µM): 0.461 | relative viability (NCI-H3122; first compound 0.8 µM): 0.461 | relative viability (NCI-H3122; first compound 2.53 µM): 0.386
